Assays:
Experiment in all cases: Kinase Profiler 10 μM panel
ALK6(h) = ALK6(h) (Homo sapiens (Human), UniProt O00238)
Procedure: (§1) In vitro kinase assays were conducted using Kinase Profiler services provided by Eurofins. The experimental method was as follows: the small molecule compound to be tested (0.001-10 μM), the protein kinase to be tested were incubated with a buffer containing substrate, 10 mM magnesium acetate, and [γ-^33P-ATP], the reaction was started by adding Mg\TPmix, after incubation for a period of time at room temperature, a 3% phosphate solution was added to the buffer to stop the reaction. Subsequently, 10 μL of the reaction mixture was quantitatively pipetted onto P30 filter paper, which was washed three times with 75 mM phosphate solution and then once with methanol. The P30 filter paper was air-dried and scintillation fluid was added for scintillation counting.

Pim-3(h) = Pim-3(h) (Homo sapiens (Human), UniProt Q86V86)
Procedure: as §1

PIP5K1g(h) = PIP5K1g(h) (Homo sapiens (Human), UniProt O60331)
Procedure: as §1

Axl(h) = Axl(h) (Homo sapiens (Human), UniProt P30530)
Procedure: as §1

Blk(h) = Blk(h) (Homo sapiens (Human), UniProt P51451)
Procedure: as §1

IGF-1R(h), activated = IGF-1R(h), activated (Homo sapiens (Human), UniProt P08069)
Procedure: as §1

BrSK1(h) = BrSK1(h) (Homo sapiens (Human), UniProt Q8TDC3)
Procedure: as §1

PKD2(h) = PKD2(h) (Homo sapiens (Human), UniProt Q9BZL6)
Procedure: as §1

JNK2α2(h) = JNK2α2(h) (Homo sapiens (Human), UniProt P45984)
Procedure: as §1

CaMKIγ(h) = CaMKIγ(h) (Homo sapiens (Human), UniProt Q96NX5)
Procedure: as §1

PRKG2(h) = PRKG2(h) (Homo sapiens (Human), UniProt Q13237)
Procedure: as §1

PTK5(h) = PTK5(h) (Homo sapiens (Human), UniProt P42685)
Procedure: as §1

ROCK-II(r) = ROCK-II(r) (Rattus norvegicus (Rat), UniProt Q62868)
Procedure: as §1

CDK5/p25(h) = CDK5/p25(h) (Homo sapiens (Human), UniProt Q00535)
Procedure: as §1

SAPK2a(h) = SAPK2a(h) (Homo sapiens (Human), UniProt Q16539)
Procedure: as §1

SAPK4(h) = SAPK4(h) (Homo sapiens (Human), UniProt O15264)
Procedure: as §1

Met(h) = Met(h) (Homo sapiens (Human), UniProt P08581)
Procedure: as §1

MLCK(h) = system: MLCK(h)
Procedure: as §1

MLK3(h) = MLK3(h) (Homo sapiens (Human), UniProt Q16584)
Procedure: The experimental method was as follows: the small molecule compound to be tested (0.001-10 μM), the protein kinase to be tested were incubated with a buffer containing substrate, 10 mM magnesium acetate, and [γ-^33P-ATP], the reaction was started by adding Mg\TPmix, after incubation for a period of time at room temperature, a 3% phosphate solution was added to the buffer to stop the reaction. Subsequently, 10 μL of the reaction mixture was quantitatively pipetted onto P30 filter paper, which was washed three times with 75 mM phosphate solution and then once with methanol. The P30 filter paper was air-dried and scintillation fluid was added for scintillation counting.

Mnk2(h) = Mnk2(h) (Homo sapiens (Human), UniProt Q9HBH9)
Procedure: as §1

MOK(h) = MOK(h) (Homo sapiens (Human), UniProt Q9UQ07)
Procedure: as §1

STK33(h) = STK33(h) (Homo sapiens (Human), UniProt Q9BYT3)
Procedure: as §1

MST3(h) = MST3(h) (Homo sapiens (Human), UniProt Q9Y6E0)
DCAMKL3(h) = DCAMKL3(h) (Homo sapiens (Human), UniProt Q9C098)
mTOR/FKBP12(h) = mTOR/FKBP12(h) (Homo sapiens (Human), UniProt P42345)
Procedure: as §1

EGFR(T790M,L858R)(h) = EGFR(T790M,L858R)(h) (Homo sapiens (Human), UniProt P00533, L858R/T790M)
Procedure: as §1

Txk(h) = Txk(h) (Homo sapiens (Human), UniProt P42681)
Procedure: as §1

EphB4(h) = EphB4(h) (Homo sapiens (Human), UniProt P54760)
Procedure: as §1

VRK2(h) = VRK2(h) (Homo sapiens (Human), UniProt Q86Y07)
Procedure: as §1

Wee1B(h) = Wee1B(h) (Homo sapiens (Human), UniProt P0C1S8)
Procedure: as §1

PDHK4(h) = PDHK4(h) (Homo sapiens (Human), UniProt Q16654)
Procedure: as §1

Yes(h) = Yes(h) (Homo sapiens (Human), UniProt P07947)
Procedure: as §1

ZAK(h) = ZAK(h) (Homo sapiens (Human), UniProt Q9NYL2)
Procedure: as §1

[1] = target: PI3 Kinase (p110a(E542K)/p85a)(m) (Mus musculus (Mouse), UniProt P42337, E542K)
Procedure: as §1

Chain of BrSK1(h) (Q8TDC3 whole entry): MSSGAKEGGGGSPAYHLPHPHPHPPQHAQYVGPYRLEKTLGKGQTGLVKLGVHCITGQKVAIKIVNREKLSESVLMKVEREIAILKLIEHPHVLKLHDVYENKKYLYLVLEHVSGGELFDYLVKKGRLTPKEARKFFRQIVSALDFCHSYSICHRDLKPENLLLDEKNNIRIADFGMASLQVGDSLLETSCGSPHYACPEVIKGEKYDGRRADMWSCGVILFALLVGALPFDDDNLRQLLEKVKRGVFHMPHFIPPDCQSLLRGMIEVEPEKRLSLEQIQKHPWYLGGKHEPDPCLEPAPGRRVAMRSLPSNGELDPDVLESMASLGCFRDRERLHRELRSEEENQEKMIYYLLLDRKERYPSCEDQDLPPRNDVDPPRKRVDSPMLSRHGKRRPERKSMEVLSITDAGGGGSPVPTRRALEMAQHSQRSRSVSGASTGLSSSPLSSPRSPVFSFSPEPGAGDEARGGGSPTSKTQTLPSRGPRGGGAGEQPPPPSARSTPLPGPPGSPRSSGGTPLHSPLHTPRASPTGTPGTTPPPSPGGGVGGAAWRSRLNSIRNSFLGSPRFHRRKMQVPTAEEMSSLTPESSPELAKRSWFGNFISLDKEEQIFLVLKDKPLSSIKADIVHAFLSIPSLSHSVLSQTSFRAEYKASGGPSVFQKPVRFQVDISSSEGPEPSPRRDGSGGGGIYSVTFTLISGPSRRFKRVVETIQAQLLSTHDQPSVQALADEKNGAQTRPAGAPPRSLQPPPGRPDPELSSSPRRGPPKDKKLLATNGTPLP
Chain of SAPK4(h) (O15264 whole entry): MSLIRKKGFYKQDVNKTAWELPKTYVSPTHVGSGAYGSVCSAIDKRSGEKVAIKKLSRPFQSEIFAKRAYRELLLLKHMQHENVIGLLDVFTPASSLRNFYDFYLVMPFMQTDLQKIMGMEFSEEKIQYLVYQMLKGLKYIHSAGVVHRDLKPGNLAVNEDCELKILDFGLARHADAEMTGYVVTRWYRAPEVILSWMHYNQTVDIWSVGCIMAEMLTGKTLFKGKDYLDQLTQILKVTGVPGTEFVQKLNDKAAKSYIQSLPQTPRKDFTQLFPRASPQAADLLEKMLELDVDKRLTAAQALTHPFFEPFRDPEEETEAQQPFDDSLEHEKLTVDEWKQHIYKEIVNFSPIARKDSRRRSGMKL
Chain of CaMKIγ(h) (Q96NX5 whole entry): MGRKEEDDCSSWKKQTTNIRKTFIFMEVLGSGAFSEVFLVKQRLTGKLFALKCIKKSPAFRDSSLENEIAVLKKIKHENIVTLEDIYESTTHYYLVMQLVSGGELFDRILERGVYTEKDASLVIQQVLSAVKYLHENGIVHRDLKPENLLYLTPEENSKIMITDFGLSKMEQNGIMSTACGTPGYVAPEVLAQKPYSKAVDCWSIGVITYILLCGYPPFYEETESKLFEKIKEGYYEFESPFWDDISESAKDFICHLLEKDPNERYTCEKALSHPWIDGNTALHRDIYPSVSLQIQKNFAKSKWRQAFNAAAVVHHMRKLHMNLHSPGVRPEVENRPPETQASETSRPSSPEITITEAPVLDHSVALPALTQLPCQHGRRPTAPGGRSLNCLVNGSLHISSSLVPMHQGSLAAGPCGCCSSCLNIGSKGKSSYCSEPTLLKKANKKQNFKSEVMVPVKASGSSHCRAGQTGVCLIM
Chain of Blk(h) (P51451 whole entry): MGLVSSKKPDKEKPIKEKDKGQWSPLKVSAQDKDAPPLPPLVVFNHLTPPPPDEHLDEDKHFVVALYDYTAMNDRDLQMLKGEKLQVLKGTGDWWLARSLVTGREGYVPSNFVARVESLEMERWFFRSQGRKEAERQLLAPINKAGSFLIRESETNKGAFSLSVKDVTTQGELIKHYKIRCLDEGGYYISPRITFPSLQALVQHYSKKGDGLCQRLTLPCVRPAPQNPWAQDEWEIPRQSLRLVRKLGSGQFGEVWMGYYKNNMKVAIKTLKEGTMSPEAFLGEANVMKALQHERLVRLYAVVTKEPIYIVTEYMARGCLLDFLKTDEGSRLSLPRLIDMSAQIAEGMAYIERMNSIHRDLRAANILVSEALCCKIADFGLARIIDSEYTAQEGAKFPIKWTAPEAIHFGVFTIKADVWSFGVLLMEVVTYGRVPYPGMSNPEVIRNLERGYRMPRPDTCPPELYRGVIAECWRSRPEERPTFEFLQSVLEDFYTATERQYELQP
Chain of VRK2(h) (Q86Y07 whole entry): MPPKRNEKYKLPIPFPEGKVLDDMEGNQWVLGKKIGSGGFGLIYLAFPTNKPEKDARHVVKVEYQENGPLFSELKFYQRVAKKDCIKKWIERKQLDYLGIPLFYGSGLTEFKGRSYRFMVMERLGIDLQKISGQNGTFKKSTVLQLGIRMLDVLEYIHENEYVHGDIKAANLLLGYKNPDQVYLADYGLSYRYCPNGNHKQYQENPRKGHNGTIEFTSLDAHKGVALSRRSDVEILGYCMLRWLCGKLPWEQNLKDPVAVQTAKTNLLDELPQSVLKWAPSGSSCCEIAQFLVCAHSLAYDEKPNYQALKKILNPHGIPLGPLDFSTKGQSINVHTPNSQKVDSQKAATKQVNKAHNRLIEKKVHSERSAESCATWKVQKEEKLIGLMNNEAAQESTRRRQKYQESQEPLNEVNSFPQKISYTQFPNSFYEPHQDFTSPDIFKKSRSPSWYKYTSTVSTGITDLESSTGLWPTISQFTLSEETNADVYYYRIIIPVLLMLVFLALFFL
Chain of MOK(h) (Q9UQ07 whole entry): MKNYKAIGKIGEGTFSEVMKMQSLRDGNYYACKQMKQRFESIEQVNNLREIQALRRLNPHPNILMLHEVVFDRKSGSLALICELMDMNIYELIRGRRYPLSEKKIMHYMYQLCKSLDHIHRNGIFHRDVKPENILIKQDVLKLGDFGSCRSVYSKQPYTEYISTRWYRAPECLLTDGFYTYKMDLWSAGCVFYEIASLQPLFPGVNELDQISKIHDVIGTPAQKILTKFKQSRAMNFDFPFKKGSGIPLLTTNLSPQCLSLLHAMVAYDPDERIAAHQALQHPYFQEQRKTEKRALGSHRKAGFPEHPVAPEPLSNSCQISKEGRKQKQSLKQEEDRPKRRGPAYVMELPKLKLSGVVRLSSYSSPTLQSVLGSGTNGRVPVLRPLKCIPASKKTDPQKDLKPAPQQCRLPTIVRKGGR
Chain of JNK2α2(h) (P45984 whole entry): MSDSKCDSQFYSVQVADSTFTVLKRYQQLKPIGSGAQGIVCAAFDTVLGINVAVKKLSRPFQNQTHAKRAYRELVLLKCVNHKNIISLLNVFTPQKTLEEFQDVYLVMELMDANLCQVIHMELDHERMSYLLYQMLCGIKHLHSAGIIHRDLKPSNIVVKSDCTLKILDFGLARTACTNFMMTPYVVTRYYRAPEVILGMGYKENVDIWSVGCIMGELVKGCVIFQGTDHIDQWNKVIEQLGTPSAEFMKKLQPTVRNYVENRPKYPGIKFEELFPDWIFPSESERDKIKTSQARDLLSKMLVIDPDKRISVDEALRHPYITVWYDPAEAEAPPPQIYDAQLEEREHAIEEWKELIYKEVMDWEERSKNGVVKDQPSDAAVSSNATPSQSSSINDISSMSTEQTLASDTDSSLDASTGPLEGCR
Chain of ROCK-II(r) (Q62868 whole entry): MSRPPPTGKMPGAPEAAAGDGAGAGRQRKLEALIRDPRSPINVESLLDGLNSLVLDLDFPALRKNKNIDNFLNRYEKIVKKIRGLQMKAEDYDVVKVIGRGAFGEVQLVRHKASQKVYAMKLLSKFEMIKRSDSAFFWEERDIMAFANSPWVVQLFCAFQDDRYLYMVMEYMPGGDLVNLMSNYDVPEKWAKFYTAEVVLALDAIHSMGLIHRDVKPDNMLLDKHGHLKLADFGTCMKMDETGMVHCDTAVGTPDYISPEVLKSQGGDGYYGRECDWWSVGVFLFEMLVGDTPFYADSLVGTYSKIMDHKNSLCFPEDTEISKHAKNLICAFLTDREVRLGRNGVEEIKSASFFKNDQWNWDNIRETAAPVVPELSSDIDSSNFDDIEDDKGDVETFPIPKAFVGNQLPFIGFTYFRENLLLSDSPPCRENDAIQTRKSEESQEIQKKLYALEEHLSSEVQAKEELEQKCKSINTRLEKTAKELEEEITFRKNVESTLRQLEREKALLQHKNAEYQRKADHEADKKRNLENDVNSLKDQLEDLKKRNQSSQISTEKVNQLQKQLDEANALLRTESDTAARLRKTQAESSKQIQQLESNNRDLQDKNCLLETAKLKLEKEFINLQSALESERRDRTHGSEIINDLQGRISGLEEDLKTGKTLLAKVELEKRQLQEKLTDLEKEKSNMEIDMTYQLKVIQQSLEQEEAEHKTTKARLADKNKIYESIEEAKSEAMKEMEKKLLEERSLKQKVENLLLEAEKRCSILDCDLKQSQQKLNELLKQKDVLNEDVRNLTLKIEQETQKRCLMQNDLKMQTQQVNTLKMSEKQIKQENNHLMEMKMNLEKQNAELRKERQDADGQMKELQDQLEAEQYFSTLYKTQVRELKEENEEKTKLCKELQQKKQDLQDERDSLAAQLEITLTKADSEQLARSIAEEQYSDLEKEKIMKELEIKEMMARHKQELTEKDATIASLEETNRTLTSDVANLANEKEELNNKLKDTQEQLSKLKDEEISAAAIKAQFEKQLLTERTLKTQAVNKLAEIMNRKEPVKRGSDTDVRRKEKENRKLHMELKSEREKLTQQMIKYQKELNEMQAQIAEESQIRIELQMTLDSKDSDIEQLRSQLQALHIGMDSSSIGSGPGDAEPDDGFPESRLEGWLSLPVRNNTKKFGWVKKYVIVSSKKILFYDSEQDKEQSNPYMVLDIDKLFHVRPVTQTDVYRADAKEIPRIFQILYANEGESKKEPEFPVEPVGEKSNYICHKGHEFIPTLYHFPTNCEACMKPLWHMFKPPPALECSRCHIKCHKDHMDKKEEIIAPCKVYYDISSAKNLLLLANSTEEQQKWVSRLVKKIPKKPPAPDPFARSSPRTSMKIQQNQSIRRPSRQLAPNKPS

## C[C@H](NC(=O)c1c[nH]c2ccc(-c3ccc4nc(NC(=O)C5CC5)sc4c3)cc12)c1cccc(F)c1 [Compound 34, (S)-5-(2-(cyclopropanecarboxamido)benzo[d]thiazol-6-yl)-N-(1-(3-fluorophenyl)ethyl)-1H-indole-3-carboxamide]
ALK6(h)
  Inhibition ratio: −4%
Pim-3(h)
  Inhibition ratio: 3%
PIP5K1g(h)
  Inhibition ratio: 18%
Axl(h)
  Inhibition ratio: 86%
Blk(h)
  Inhibition ratio: 65%
IGF-1R(h), activated
  Inhibition ratio: 21%
BrSK1(h)
  Inhibition ratio: −28%
PKD2(h)
  Inhibition ratio: 46%
JNK2α2(h)
  Inhibition ratio: 25%
CaMKIγ(h)
  Inhibition ratio: 7%
PRKG2(h)
  Inhibition ratio: 3%
PTK5(h)
  Inhibition ratio: 51%
ROCK-II(r)
  Inhibition ratio: 12%
CDK5/p25(h)
  Inhibition ratio: 16%
SAPK2a(h)
  Inhibition ratio: 29%
SAPK4(h)
  Inhibition ratio: 94%
Met(h)
  Inhibition ratio: 95%
MLCK(h)
  Inhibition ratio: 14%
MLK3(h)
  Inhibition ratio: 101%
Mnk2(h)
  Inhibition ratio: 38%
MOK(h)
  Inhibition ratio: −15%
STK33(h)
  Inhibition ratio: 4%
MST3(h)
  Inhibition ratio: 7%
DCAMKL3(h)
  Inhibition ratio: 8%
mTOR/FKBP12(h)
  Inhibition ratio: 10%
EGFR(T790M,L858R)(h); EGFR(T790M,L858R)(h)
  Inhibition ratio: 84%
Txk(h)
  Inhibition ratio: 47%
EphB4(h)
  Inhibition ratio: 11%
VRK2(h)
  Inhibition ratio: 21%
Wee1B(h)
  Inhibition ratio: −2%
PDHK4(h)
  Inhibition ratio: 72%
Yes(h)
  Inhibition ratio: 85%
ZAK(h)
  Inhibition ratio: 67%
[1]
  Inhibition ratio: 33%

## C[C@H](NC(=O)c1cn(C)c2ccc(-c3ccn4nc(NC(=O)C5CC5)nc4c3)cc12)c1cccc(F)c1 [Compound 94, (S)-5-(2-(cyclopropanecarboxamido)-[1,2,4]triazolo[1,5-a]pyridin-7-yl)-N-(1-(3-fluorophenyl)ethyl)-1-methyl-1H-indole-3-carboxamide]
ALK6(h)
  Inhibition ratio/%: −5%
Pim-3(h)
  Inhibition ratio/%: 32%
PIP5K1g(h)
  Inhibition ratio/%: −16%
Axl(h)
  Inhibition ratio/%: 31%
Blk(h)
  Inhibition ratio/%: 65%
IGF-1R(h), activated
  Inhibition ratio/%: −17%
BrSK1(h)
  Inhibition ratio/%: 31%
PKD2(h)
  Inhibition ratio/%: 9%
JNK2α2(h)
  Inhibition ratio/%: 40%
CaMKIγ(h)
  Inhibition ratio/%: −13%
PRKG2(h)
  Inhibition ratio/%: −9%
PTK5(h)
  Inhibition ratio/%: 48%
ROCK-II(r)
  Inhibition ratio/%: 52%
CDK5/p25(h)
  Inhibition ratio/%: 46%
SAPK2a(h)
  Inhibition ratio/%: 17%
SAPK4(h)
  Inhibition ratio/%: 12%
Met(h)
  Inhibition ratio/%: −29%
MLCK(h)
  Inhibition ratio/%: 14%
MLK3(h)
  Inhibition ratio/%: 102%
Mnk2(h)
  Inhibition ratio/%: 51%
MOK(h)
  Inhibition ratio/%: −15%
STK33(h)
  Inhibition ratio/%: 23%
MST3(h)
  Inhibition ratio/%: 33%
DCAMKL3(h)
  Inhibition ratio/%: 33%
mTOR/FKBP12(h)
  Inhibition ratio/%: 36%
EGFR(T790M,L858R)(h); EGFR(T790M, L858R)(h)
  Inhibition ratio/%: 52%
Txk(h)
  Inhibition ratio/%: −12%
EphB4(h)
  Inhibition ratio/%: 56%
VRK2(h)
  Inhibition ratio/%: −18%
Wee1B(h)
  Inhibition ratio/%: −2%
PDHK4(h)
  Inhibition ratio/%: −18%
Yes(h)
  Inhibition ratio/%: 29%
ZAK(h)
  Inhibition ratio/%: 59%
[1]
  Inhibition ratio/%: −1%
